According to patent publication US5527781A, “4-O-(aminoglycosyl)- or 4,6-di-O-(aminoglycosyl)-2,5-dideoxy-5,5-difluorostreptamine derivatives” (Zaidan Hojin Biseibutsu Kagaku Kenkyu Kai, priority 1990, dated 1996):
≈ marks a conversion by molar mass, not a printed value. Like-named read-outs stand apart in the source and are kept apart here.

What was measured:
[1] = system: Staphylococcus aureus 209P; experiment: MIC, standard serial dilution method; format: cell-based; details: Mueller-Hinton agar, 37° C
[2] = system: Staphylococcus aureus Ap01; experiment: MIC, standard serial dilution method; format: cell-based; details: resistance mechanism ANT(4'), Mueller-Hinton agar, 37° C
[3] = system: Bacillus subtilis PCI219; experiment: MIC, standard serial dilution method; format: cell-based; details: Mueller-Hinton agar, 37° C
[4] = system: Corynebacterium bovis 1810; experiment: MIC, standard serial dilution method; format: cell-based; details: Mueller-Hinton agar, 37° C
[5] = system: Escherichia coli K-12; experiment: MIC, standard serial dilution method; format: cell-based; details: K12; Escherichia coli K-12; Mueller-Hinton agar, 37° C; read-out: MIC
[6] = system: Escherichia coli K-12 R5; experiment: microbe, parasite or virus in culture; format: cell-based; details: K12R5
[7] = system: Escherichia coli K-12 ML 1629; experiment: microbe, parasite or virus in culture; format: cell-based; details: K12ML1629; Escherichia coli K-12 ML 1629; resistance mechanism APH(3')-I; Mueller-Hinton agar, 37° C; read-out: MIC
[8] = system: Escherichia coli K-12 LA 290 R55; experiment: microbe, parasite or virus in culture; format: cell-based; details: K12LA290R55
[9] = system: Escherichia coli JR225; experiment: microbe, parasite or virus in culture; format: cell-based; details: resistance mechanism AAC(3), Mueller-Hinton agar, 37° C
[10] = system: Escherichia coli JR66/W677; experiment: microbe, parasite or virus in culture; format: cell-based; details: resistance mechanism APH(3')-II, ANT(2"), Mueller-Hinton agar, 37° C
[11] = system: Mycobacterium 607; experiment: MIC, standard serial dilution method; format: cell-based; details: Mueller-Hinton agar, 37° C
[12] = system: Klebsiella pneumoniae 22#3038; experiment: MIC, standard serial dilution method; format: cell-based; details: resistance mechanism APH(3')-II, ANT(2"), Mueller-Hinton agar, 37° C
[13] = system: Proteus rettgeri GN 311; experiment: MIC, standard serial dilution method; format: cell-based; details: Providencia rettgeri, GN311
[14] = system: Serratia marcescens; experiment: MIC, standard serial dilution method; format: cell-based; details: Mueller-Hinton agar, 37° C
[15] = system: Providencia sp. Pv 16; experiment: MIC, standard serial dilution method; format: cell-based; details: SP.PV16, resistance mechanism AAC(2'), Mueller-Hinton agar, 37° C
[16] = system: Pseudomonas aeruginosa A3; experiment: MIC, standard serial dilution method; format: cell-based; details: Mueller-Hinton agar, 37° C
[17] = system: Pseudomonas aeruginosa GN 315; experiment: MIC, standard serial dilution method; format: cell-based; details: GN315; Pseudomonas aeruginosa GN 315; resistance mechanism AAC(6'); Mueller-Hinton agar, 37° C; read-out: MIC
[18] = in vivo; details: mouse, iv, pH 7
Text: Further, in order to estimate acute toxicity of the compound of the general formula (I) according to this invention, some examples of the compounds of this invention were independently dissolved in water to prepare aqueous solutions (as adjusted to pH 7 by addition of hydrochloric acid). […] The tested compounds of this invention are expressed by the same abbreviations as in Table 1. […] The comparative compounds as tested are also expressed by the same abbreviations as in Table 1.

[19] = Escherichia coli K-12 R5, resistance mechanism AAC(6'), Mueller-Hinton agar, 37° C
[20] = Escherichia coli K-12 LA 290 R55, resistance mechanism ANT(2"), Mueller-Hinton agar, 37° C
[21] = Proteus rettgeri GN 311, Mueller-Hinton agar, 37° C, read-out: MIC

SMILES	MIC [1] [µg/mL]	MIC [2] [µg/mL]	MIC [3] [µg/mL]	MIC [4] [µg/mL]	MIC [5] [µg/mL]	MIC [6, 19] [µg/mL]	MIC [7] [µg/mL]	MIC [8, 20] [µg/mL]	MIC [9] [µg/mL]	MIC [10] [µg/mL]	MIC [11] [µg/mL]	MIC [12] [µg/mL]	MIC [13, 21] [µg/mL]	MIC [14] [µg/mL]	MIC [15] [µg/mL]	MIC [16] [µg/mL]	MIC [17] [µg/mL]	LD50 [18] [mg/kg]	also measured
NCC[C@H](O)C(=O)N[C@@H]1C[C@H](N)[C@@H](O[C@H]2O[C@H](CN)CC[C@H]2N)C(F)(F)[C@H]1O[C@H]1O[C@H](CO)[C@@H](O)[C@H](N)[C@H]1O [Compound 5FF-DKB-AHB, 1-N-[(S)-4-amino-2-hydroxybutyryl]-5,3',4'-trideoxy-5,5-difluorokanamycin B]	0.39 (≈ 0.681 µM)	3.12 (≈ 5.45 µM)	0.39 (≈ 0.681 µM)	< 0.2	< 0.2	3.12 (≈ 5.45 µM)	0.39 (≈ 0.681 µM)	< 0.2	< 0.2	0.39 (≈ 0.681 µM)	0.78 (≈ 1.36 µM)	0.78 (≈ 1.36 µM)	0.39 (≈ 0.681 µM)	1.56 (≈ 2.72 µM)	0.78 (≈ 1.36 µM)	0.78 (≈ 1.36 µM)	12.5 (≈ 21.8 µM)	~200	
CCN[C@@H]1C[C@H](N)[C@@H](O[C@H]2OC(CN)=CC[C@H]2N)[C@H](O)[C@H]1O[C@H]1OC[C@](C)(O)[C@H](NC)[C@H]1O [Netilmicin, netilmicin, reference compound]	< 0.2	0.78 (≈ 1.64 µM)	< 0.2	1.56 (≈ 3.28 µM)	< 0.2	50 (≈ 105 µM)	0.39 (≈ 0.82 µM)	0.39 (≈ 0.82 µM)	12.5 (≈ 26.3 µM)	0.39 (≈ 0.82 µM)	1.56 (≈ 3.28 µM)	0.39 (≈ 0.82 µM)	0.39 (≈ 0.82 µM)	6.25 (≈ 13.1 µM)	6.25 (≈ 13.1 µM)	0.39 (≈ 0.82 µM)	> 100	30	
CN[C@@H]1[C@@H](O)[C@@H](O[C@H]2[C@H](N)C[C@H](N)[C@@H](O[C@H]3O[C@H](CN)CC[C@H]3N)C2(F)F)OC[C@]1(C)O [5FF-Genta-C1a, 5-deoxy-5,5-difluorogentamicin C1a]	0.78 (≈ 1.66 µM)	3.12 (≈ 6.64 µM)	0.39 (≈ 0.831 µM)	0.78 (≈ 1.66 µM)	< 0.2	12.5 (≈ 26.6 µM)	0.39 (≈ 0.831 µM)	3.12 (≈ 6.64 µM)	3.12 (≈ 6.64 µM)	1.56 (≈ 3.32 µM)	0.78 (≈ 1.66 µM)	1.56 (≈ 3.32 µM)	0.39 (≈ 0.831 µM)	6.25 (≈ 13.3 µM)	12.5 (≈ 26.6 µM)	0.78 (≈ 1.66 µM)	100 (≈ 213 µM)	~240	
CN[C@@H]1[C@@H](O)[C@@H](O[C@@H]2[C@@H](O)[C@H](O[C@H]3O[C@H]([C@@H](C)NC)CC[C@H]3N)[C@@H](N)C[C@H]2N)OC[C@]1(C)O [Genta-C1, gentamicin C1, reference compound]	< 0.2	0.78 (≈ 1.63 µM)	< 0.2	0.39 (≈ 0.817 µM)	0.2 (≈ 0.419 µM)		0.39 (≈ 0.817 µM)	12.5 (≈ 26.2 µM)	25 (≈ 52.3 µM)	12.5 (≈ 26.2 µM)	3.12 (≈ 6.53 µM)	12.5 (≈ 26.2 µM)		0.78 (≈ 1.63 µM)	25 (≈ 52.3 µM)	0.78 (≈ 1.63 µM)	6.25 (≈ 13.1 µM)	~70	MIC ([6]; Escherichia coli): 0.78 µg/mL (≈ 1.63 µM); MIC [13]: 0.78 µg/mL (≈ 1.63 µM)
NCC[C@H](O)C(=O)N[C@@H]1C[C@H](N)[C@@H](O[C@H]2O[C@H](CN)[C@@H](O)C[C@H]2N)C(F)(F)[C@H]1O[C@H]1O[C@H](CO)[C@@H](O)[C@H](N)[C@H]1O [Compound 5FF-TOB-AHB, 1-N-[(S)-4-amino-2-hydroxybutyryl]-5-deoxy-5,5-difluorotobramycin]	0.39 (≈ 0.663 µM)	3.12 (≈ 5.3 µM)	< 0.2	< 0.2	< 0.2	3.12 (≈ 5.3 µM)	0.39 (≈ 0.663 µM)	< 0.2	< 0.2	0.39 (≈ 0.663 µM)	0.39 (≈ 0.663 µM)	0.78 (≈ 1.33 µM)	0.39 (≈ 0.663 µM)	1.56 (≈ 2.65 µM)	0.78 (≈ 1.33 µM)	0.78 (≈ 1.33 µM)	6.25 (≈ 10.6 µM)	> 300	
CN[C@@H]1[C@@H](O)[C@@H](O[C@H]2[C@H](N)C[C@H](N)[C@@H](O[C@H]3O[C@H]([C@@H](C)NC)CC[C@H]3N)C2(F)F)OC[C@]1(C)O [Compound 5FF-Genta-C1, 5-deoxy-5,5-difluorogentamicin C1]	1.56 (≈ 3.14 µM)	12.5 (≈ 25.1 µM)	1.56 (≈ 3.14 µM)	3.12 (≈ 6.27 µM)	1.56 (≈ 3.14 µM)	1.56 (≈ 3.14 µM)	1.56 (≈ 3.14 µM)		12.5 (≈ 25.1 µM)	0.78 (≈ 1.57 µM)	1.56 (≈ 3.14 µM)	3.12 (≈ 6.27 µM)	1.56 (≈ 3.14 µM)	1.56 (≈ 3.14 µM)	25 (≈ 50.2 µM)	6.25 (≈ 12.6 µM)	25 (≈ 50.2 µM)	~200	MIC ([8]; Escherichia coli): 0.78 µg/mL (≈ 1.57 µM)
